From patent US4757068A, “Lactams and bicyclic lactams useful as cholecystokinin antagonists” (Merck & Co., Inc., priority 1985, dated 1988)

Experiments:
CCK receptor [1] = target: T1, CCK receptor (Rattus norvegicus, UniProt P30551); assay: 125I-CCK-33 receptor binding (pancreas or brain; tissue not stated); conditions: added protease inhibitors in binding buffer
T1 construct: from tissue
T1 sequence (P30551 1-444): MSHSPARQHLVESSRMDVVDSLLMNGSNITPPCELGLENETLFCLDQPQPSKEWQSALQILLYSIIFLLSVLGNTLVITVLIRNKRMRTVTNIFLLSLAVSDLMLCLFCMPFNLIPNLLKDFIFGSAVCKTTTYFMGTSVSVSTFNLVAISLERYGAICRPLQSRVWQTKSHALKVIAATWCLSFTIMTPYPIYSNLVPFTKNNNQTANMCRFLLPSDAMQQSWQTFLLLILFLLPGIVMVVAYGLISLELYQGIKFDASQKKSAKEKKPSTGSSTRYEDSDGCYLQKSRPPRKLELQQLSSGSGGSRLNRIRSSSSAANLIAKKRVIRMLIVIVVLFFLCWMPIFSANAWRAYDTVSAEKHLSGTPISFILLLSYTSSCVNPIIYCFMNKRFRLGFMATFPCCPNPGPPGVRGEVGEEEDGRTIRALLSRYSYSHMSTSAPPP
Procedure: (§1) CCK-33 was radiolabeled with ^125 I-Bolton Hunter reagent (2000 Ci/mmole) as described by Sankara et al. (J. Biol. Chem. 254: 9349-9351, 1979). Receptor binding was performed according to Innis and Snyder (Proc. Natl. Acad. Sci. 77: 6917-6921, 1980) with the minor modification of adding the additional protease inhibitors, phenylmethane sulfonyl fluoride and o-phenanthroline.
(§2) Male Sprague-Dawley rats (200-350g) were sacrificed by decapitation. The whole pancreas was dissected free of fat tissue and was homogenized in 20 volumes of ice-cold 50 mM, Tris HCl (pH 7.7 at 25° C.) with a Brinkmann Polytron PT 10. The homogenates were centrifuged at 48,000 g for 10 min. Pellets were resuspended in Tris Buffer, centrifuged as above and resuspended in 200 volumes of binding assay buffer (50 mM Tris HCl, pH 7.7 at 25° C., 5 mM dithriothriethel, 0.1 mM bacitracin, 1.2 mM phenylmethane sulfonyl fluoride, and 0.5 mM phenathroline). […] All assays were run in duplicate or triplicate. The reaction mixtures were incubated at 37° C. for 30 minutes and centrifuged in a Beckman Microfuge (4 minutes) immediately after adding 1 ml of ice-cold incubation buffer. The supernatant was aspirated and discarded, pellets were counted with a Beckman gamma 5000.
(§3) CCK-33 was radiolabeled and the binding was performed according to the description for the pancreas method with modifications according to Saito et al. (J. Neurochem., 37, 483-490 (1981)).
(§4) Male Hartley guinea pigs (300-500g) were sacrificed by decapitation and the brains were removed and placed in ice-cold 50 mM, Tris HCl plus 7.58 g/l Tritma-7.4 (pH 7.4 at 25° C.) Cerebral cortex was dissected and used as a receptor source. Each gram of fresh guinea pig brain tissue was homogenized in 10 ml of Tris/Trizma buffer with a Brinkman polytron PT-10. The homogenates were centrifuged at 42,000 g for 15 min. Pellets were resuspended in Tris Buffer, centrifuged as above and resuspended in 200 volumes of binding assay buffer (10 mM HEPES, pH 7.7 at 25° C., 5 mM MgCl2, 1 mM EGTA, 0.4% BSA (bovine serum albumin), and 0.25 mg/ml bacitracin). […] All assays were run in duplicate or triplicate. The reaction mixtures were incubated at 25° C. for 2 hours and centrifuged in a Beckman Microfuge (4 minutes) immediately after adding 1 ml of ice-cold incubation buffer. The supernatant was aspirated and discarded, pellets were counted with a Beckman gamma 5000.

CCK receptor [2] = assay: as above; conditions: 125I-CCK-33; tissue (rat pancreas or guinea pig brain) not stated; read-out: inhibition of specific 125I-CCK-33 binding, IC50
Procedure: as §1, §2, §3, §4

CCK receptor [3] = conditions: various members of the cyclic nucleotide class, literature; cited from earlier work

Row | Compound | IC50 (CCK receptor [2]) | effect on the 125I-CCK receptor binding assay (CCK receptor [1]) | other results
1 | c1cnc2c(c1)ccc1cccnc12 [o-phenanthroline] |  | no effect | 
2 | O=S(=O)(F)Cc1ccccc1 [phenylmethane sulfonyl fluoride] |  | no effect | 
3 | CCCC(=O)Nc1nc2c(ncn2[C@@H]2O[C@@H]3COP(=O)(O)O[C@H]3[C@H]2OC(=O)CCC)c(=O)[nH]1 [dibutyryl cyclic GMP] |  |  | potency rank among cyclic nucleotide CCK antagonists (CCK receptor [3]): most potent

Now from value to molecule, other results behind:

Row | IC50 (CCK receptor [2]) | Compound | effect on the 125I-CCK receptor binding assay (CCK receptor [1]) | other results
4 | 72 µM | COC(=O)CN1C(=O)C(C)(NC(CCc2ccccc2)C(=O)OC)CCc2ccccc21 (centres unmarked) [1-Carbomethoxymethyl-3-(1-carbomethoxy-3-phenylpropyl)amino-3-methyl homodihydrocarbostyril] |  | 
5 | 32 µM | CCOC(=O)C(CCc1ccccc1)NC1CCCC(c2ccccc2)N(CC(=O)OC)C1=O (single isomer, unassigned) [1-Carbomethoxymethyl-3-(1-carbethoxy-3-phenylpropyl)amino-7-phenylperhydroazepin-2-one] |  | 
